According to patent publication EP4782433A1, “METHOD FOR PRODUCING ARYLAMIDE DERIVATIVE” (CHUGAI SEIYAKU KABUSHIKI KAISHA, priority 2023, dated 2025):

What was measured:
physchem = conditions: 25 °C, organic solvent or mixture, thermodynamic from solid
[1] = in water at 25°C; cited from earlier work
[2] = Solubility of the additive or its sodium salt in a mixed solvent of tetrahydrofuran, acetone, tert-butyl methyl ether and water (supernatant analysed by HPLC); conditions: 25 °C, organic solvent or mixture, thermodynamic from solid

| Structure (SMILES) | solubility (physchem; Solubility of additive) [mM] | solubility (physchem; Solubility of sodium salt of additive) [mM] | pKa [1] | solubility [2] [mM] | solubility ([2]; Solubility of additive, 25°C, tetrahydrofuran:acetone:tert-butyl methyl ether 8:10:5 by volume, water 3% by mass, stirred for 6 hours or longer) [mM] |
| --- | --- | --- | --- | --- | --- |
| CC(=O)Nc1ccc(O)cc1 [Acetaminophen] | ≥ 70 | 40 | 9.78 |  |  |
| Cc1cccc(O)c1 [m-Cresol] |  |  |  | ≥ 50 | ≥ 50 |
